Test results from PubChem BioAssay (NCI).
Values joined by “and” are separate entries in the source; they are usually repeats but may differ in a detail not shown here. Equal entries are not always repeated.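 Growth conditions: 96-well plates. Treatment: test compound, 48 hours, 5 concentrations. Analysis: linear interpolation between bracketing concentrations; unreached endpoints set to highest concentration. GI50 is the concentration that inhibits growth by half. At the TGI there is no net growth.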

Tests used:
Assay in all cases: inhibition of tumour cell growth, NCI panel, 48 h
HCC-2998 colon = test system: HCC-2998 colon
OVCAR-3 ovarian = test system: OVCAR-3 ovarian
SR leukemia = test system: SR leukemia
LOX IMVI melanoma = test system: LOX IMVI melanoma
SNB-75 CNS = test system: SNB-75 CNS
BT-549 breast = test system: BT-549 breast
COLO 205 colon = test system: COLO 205 colon
K-562 leukemia = test system: K-562 leukemia
786-0 renal = test system: 786-0 renal
HL-60(TB) leukemia = test system: HL-60(TB) leukemia

| Structure (SMILES) | TGI (HCC-2998 colon) [µM] | TGI (OVCAR-3 ovarian) [µM] | TGI (SR leukemia) | TGI (LOX IMVI melanoma) [µM] | TGI (SNB-75 CNS) [µM] | TGI (BT-549 breast) [µM] | TGI (COLO 205 colon) [µM] | TGI (K-562 leukemia) [µM] | TGI (786-0 renal) [µM] | TGI (HL-60(TB) leukemia) [µM] | GI50 (HL-60(TB) leukemia) [µM] | GI50 (BT-549 breast) [µM] | GI50 (COLO 205 colon) [µM] | GI50 (HCC-2998 colon) | GI50 (OVCAR-3 ovarian) | GI50 (LOX IMVI melanoma) | GI50 (SNB-75 CNS) | GI50 (SR leukemia) | GI50 (K-562 leukemia) |
| --- | --- | --- | --- | --- | --- | --- | --- | --- | --- | --- | --- | --- | --- | --- | --- | --- | --- | --- | --- |
| C[C@]12CC[C@@H]3c4ccc(O)cc4CC[C@H]3[C@@H]1C/C(=C\c1ccc(C#N)cc1)C2=O | > 100 | > 100 | > 100 µM | > 100 | > 100 | > 100 | > 100 | > 100 | > 100 | – | – | – | – | – | – | – | – | – | – |
| CC1(C)OC2COC3([C@@H]4OC(C)(C)O[C@@H]4CO)OC(C)(C)OC3C2O1 (stereo partly specified) | > 100 | > 100 | > 100 µM | > 100 | > 100 | > 100 | > 100 | > 100 | > 100 | – | – | – | – | – | – | – | – | – | – |
| O=c1c2ccccc2sc2ccccc12 | > 100 | > 100 | – | > 100 | > 100 | > 100 | > 100 | > 100 | > 100 | > 100 | – | – | – | – | – | – | – | – | – |
| CCOC(=O)c1ccc(Nc2nc3ccc(C(F)(F)F)cc3nc2C(=O)OCC)cc1 | > 100 | > 100 | > 100 µM | > 100 | > 100 | > 100 | > 100 | > 100 | > 100 | > 100 | – | – | – | – | – | – | – | – | – |
| COc1cc(C(O)c2ccc3c(c2)OCO3)cc(OC)c1OC (stereo unspecified) | > 100 | > 100 | > 100 µM | > 100 | > 100 | > 100 | > 100 | > 100 | > 100 | > 100 | – | – | – | – | – | – | – | – | – |
| CCOC(=O)c1sc2ncnc(N)c2c1C | > 100 | > 100 | > 100 µM | > 100 | > 100 | > 100 | > 100 | > 100 | > 100 | > 100 | – | – | – | – | – | – | – | – | – |
| CC(C)/C(Cl)=N/OC(=O)Nc1ccc(OC(F)(F)F)cc1 | 30.5 | 32.6 | 8.44 µM | 5.89 | 29 | 29.8 | 3.26 | 4.15 | 19.6 | 5.76 | – | – | – | – | – | – | – | – | – |
| CC(=O)Oc1c(C)c(C)c2c(c1C)CCC(C)(CC(=O)OCCCCCCCCCCC[P+](c1ccccc1)(c1ccccc1)c1ccccc1)O2 (stereo unspecified) | – | – | – | – | – | 0.99 | 1.39 | – | – | 0.926 | 0.228 | 0.314 | 0.391 | – | – | – | – | – | – |
| COc1ccc(-n2nc(C)c3c(Nc4ccc(NC(=O)Nc5ccc(Cl)c(C(F)(F)F)c5)cc4)ncnc32)cc1 | 5.64 | 5.91 | – | 2.67 | 4.55 | 6.34 | 3.64 | – | – | 4.95 | 2.1 | 2.08 | 1.71 | 2.22 µM | 1.98 µM | 1.34 µM | 0.553 µM | – | – |
| O=S1(=O)C[C@@H](NCc2ccccc2)[C@H](NCc2ccccc2)C1 | > 100 | > 100 | > 100 µM | > 100 | > 100 | > 100 | > 100 | > 100 | – | – | – | – | – | – | – | – | – | – | – |
| C=CCN1C(=O)/C(=C/c2ccc(C)cc2)N=C1SC1OC(COC(C)=O)C(OC(C)=O)C(OC(C)=O)C1OC(C)=O (stereo unspecified) | > 100 | > 100 | > 76.5 µM and 44.3 µM | > 100 | > 100 | > 100 | > 100 | > 100 | > 100 | > 100 | – | – | – | > 100 µM and 35.6 µM | > 100 µM and 29.4 µM | > 100 µM and 31.7 µM | 3.7 µM and 20.2 µM | 26.5 µM and 10.8 µM | > 73.9 µM and 29.9 µM |
| CCOC(=O)NC(Nc1c(F)c(F)c(F)c(F)c1F)(C(F)(F)F)C(F)(F)F | > 100 | > 100 | > 100 µM | > 100 | > 100 | > 100 | > 100 | > 100 | > 100 | > 100 | – | – | – | – | – | – | – | – | – |
| COc1ccc2c(c1)c(=O)c1c(NCCNCCO)ccc3c(=O)n(CCN(C)C)c(=O)n2c31 | 0.234 | 4.62 | – | 1.11 | 0.503 | 2.49 | 0.247 | 0.333 | 0.892 | > 100 | – | – | – | – | – | – | – | – | – |
| CC(C)[Si](OC/C(=C/COC(C)(C)C)[C@H]1CC=C(C(=O)c2ccccc2N2CN(C)C(=O)N(C)C2)C1)(C(C)C)C(C)C | 31 | 25 | 5.95 µM | 4.06 | 28.7 | 26.5 | 31 | > 36.4 | 17.9 | – | – | – | – | – | – | – | – | – | – |
| CN(C)c1ccc(Cc2cc3c(O)ccc(O)c3cc(Cc3ccc(N(C)C)cc3)c2=O)cc1 | 64 | 54.2 | > 26.5 µM | 40.7 | > 92.2 | 32.2 | 36.6 | 10.6 | 32.1 | > 37.6 | – | – | – | – | – | – | – | – | – |
| C=CC(=O)N1C/C(=C\c2ccc(Cl)cc2)C(=O)/C(=C/c2ccc(Cl)cc2)C1 | 0.739 | 1.03 | > 100 µM | 0.229 | 1.64 | 1.09 | 0.719 | – | 0.55 | – | – | – | – | – | – | – | – | – | – |
| O=C(OCC1OC(n2nc(Cn3nnc(-c4cccnc4)n3)n(-c3cccc4ccccc34)c2=S)C(OC(=O)c2ccccc2)C1OC(=O)c1ccccc1)c1ccccc1 (stereo unspecified) | > 100 | > 100 | > 100 µM | > 100 | > 100 | > 100 | > 100 | > 100 | > 100 | > 100 | – | – | – | – | – | – | – | – | – |
| N#Cc1c(-c2ccccc2)c2c([nH]c1=O)-c1cc([N+](=O)[O-])ccc1CCC2 | 48.2 | 45 | > 100 µM | 81.1 | 49.9 | 42.7 | 55.3 | > 100 | > 100 | 72.3 | – | – | – | – | – | – | – | – | – |
| COc1ccc(C2c3cc4c(cc3OC(NCCO)C2C)OCO4)cc1 (stereo unspecified) | 66 | 36.4 | 39.9 µM | 68.7 | 69.5 | 59 | 36.2 | 58.8 | – | 43.3 | – | – | – | – | – | – | – | – | – |
| c1ccc([P+](CCCCCCCC[P+](c2ccccc2)(c2ccccc2)c2ccccc2)(c2ccccc2)c2ccccc2)cc1 | > 100 | > 100 | 51.6 µM | 32.9 | 7.73 | > 100 | 2.71 | > 100 | > 100 | > 31.8 | – | – | – | – | – | – | – | – | – |
